Laboratory results reported in the supplement of paper PMC10307832.

How the values were obtained:
Assay in all cases: relative viability (nuclei count vs DMSO), 5 days (fraction); higher = more cells survive
NCI-H596 = tested on: NCI-H596
Outline: (§1)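 Lung cancer cell lines were pin-tool dosed in 1536-well plates on the day after seeding, with either a lone drug or a fixed anchor-drug dose plus five library-drug doses (not always all listed) in √10 steps. Nuclei were counted on 4× images after 5 days. Relative viability is the ratio of treated-well to vehicle-well nuclei counts, with each value a median of duplicate plates.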

EKVX = tested on: EKVX
Outline: as §1

NCI-H1975 = tested on: NCI-H1975
Outline: as §1

NCI-H441 = tested on: NCI-H441
Outline: as §1

NCI-H1437 = tested on: NCI-H1437
Outline: as §1

NCI-H650 = tested on: NCI-H650
Outline: as §1

NCI-H23 = tested on: NCI-H23
Outline: as §1

201T = tested on: 201T
Outline: as §1

NCI-H1792 = tested on: NCI-H1792
Outline: as §1

HCC-827 = tested on: HCC-827
Outline: as §1

NCI-H1650 = tested on: NCI-H1650
Outline: as §1

HCC-44 = tested on: HCC-44
Outline: as §1

NCI-H838 = tested on: NCI-H838
Outline: as §1

HARA = tested on: HARA
Outline: as §1

BEN = tested on: BEN
Outline: as §1

COR-L23 = tested on: COR-L23
Outline: as §1

HCC-15 = tested on: HCC-15
Outline: as §1

A-427 = tested on: A-427
Outline: as §1

CC(=O)O[C@@]12CO[C@@H]1C[C@H](O)[C@@]1(C)C(=O)[C@H](O)C3=C(C)[C@@H](OC(=O)[C@H](O)[C@@H](NC(=O)OC(C)(C)C)c4ccccc4)C[C@@](O)([C@@H](OC(=O)c4ccccc4)[C@H]21)C3(C)C [Docetaxel] + CC(C)C[C@H](NC(=O)[C@H](Cc1ccccc1)NC(=O)c1cnccn1)B(O)O [Bortezomib] (partner 0.002 µM)
relative viability (NCI-H596; first compound 0.0002 µM): 0.81 | relative viability (NCI-H596; first compound 0.000632 µM): 1.15 | relative viability (NCI-H596; first compound 0.002 µM): 0.812 | relative viability (NCI-H596; first compound 0.006325 µM): 0.723 | relative viability (NCI-H596; first compound 0.02 µM): 0.423 | relative viability (EKVX; first compound 0.0002 µM): 1.05 | relative viability (EKVX; first compound 0.000632 µM): 0.718 | relative viability (EKVX; first compound 0.002 µM): 0.429 | relative viability (EKVX; first compound 0.006325 µM): 0.269 | relative viability (EKVX; first compound 0.02 µM): 0.152 | relative viability (NCI-H1975; first compound 0.0002 µM): 0.366 | relative viability (NCI-H1975; first compound 0.000632 µM): 0.246 | relative viability (NCI-H1975; first compound 0.002 µM): 0.166 | relative viability (NCI-H1975; first compound 0.006325 µM): 0.15 | relative viability (NCI-H1975; first compound 0.02 µM): 0.141 | relative viability (NCI-H441; first compound 0.0002 µM): 0.449 | relative viability (NCI-H441; first compound 0.000632 µM): 0.276 | relative viability (NCI-H441; first compound 0.002 µM): 0.208 | relative viability (NCI-H441; first compound 0.006325 µM): 0.188 | relative viability (NCI-H441; first compound 0.02 µM): 0.179 | relative viability (NCI-H1437; first compound 0.0002 µM): 0.472 | relative viability (NCI-H1437; first compound 0.000632 µM): 0.322 | relative viability (NCI-H1437; first compound 0.002 µM): 0.215 | relative viability (NCI-H1437; first compound 0.006325 µM): 0.145 | relative viability (NCI-H1437; first compound 0.02 µM): 0.104 | relative viability (NCI-H650; first compound 0.0002 µM): 0.636 | relative viability (NCI-H650; first compound 0.000632 µM): 0.425 | relative viability (NCI-H650; first compound 0.002 µM): 0.309 | relative viability (NCI-H650; first compound 0.006325 µM): 0.233 | relative viability (NCI-H650; first compound 0.02 µM): 0.196 | relative viability (NCI-H23; first compound 0.0002 µM): 1.08 | relative viability (NCI-H23; first compound 0.000632 µM): 0.574 | relative viability (NCI-H23; first compound 0.002 µM): 0.399 | relative viability (NCI-H23; first compound 0.006325 µM): 0.169 | relative viability (NCI-H23; first compound 0.02 µM): 0.104 | relative viability (201T; first compound 0.0002 µM): 1.07 | relative viability (201T; first compound 0.000632 µM): 1.1 | relative viability (201T; first compound 0.002 µM): 1.03 | relative viability (201T; first compound 0.006325 µM): 0.624 | relative viability (201T; first compound 0.02 µM): 0.425 | relative viability (NCI-H1792; first compound 0.0002 µM): 0.951 | relative viability (NCI-H1792; first compound 0.000632 µM): 0.82 | relative viability (NCI-H1792; first compound 0.002 µM): 0.6 | relative viability (NCI-H1792; first compound 0.02 µM): 0.12 | relative viability (HCC-827; first compound 0.0002 µM): 0.891 | relative viability (HCC-827; first compound 0.000632 µM): 0.962 | relative viability (HCC-827; first compound 0.002 µM): 1 | relative viability (HCC-827; first compound 0.006325 µM): 0.562 | relative viability (HCC-827; first compound 0.02 µM): 0.328 | relative viability (NCI-H1650; first compound 0.0002 µM): 0.2 | relative viability (NCI-H1650; first compound 0.000632 µM): 0.196 | relative viability (NCI-H1650; first compound 0.002 µM): 0.204 | relative viability (NCI-H1650; first compound 0.006325 µM): 0.181 | relative viability (NCI-H1650; first compound 0.02 µM): 0.201 | relative viability (HCC-44; first compound 0.0002 µM): 0.904 | relative viability (HCC-44; first compound 0.000632 µM): 0.905 | relative viability (HCC-44; first compound 0.002 µM): 0.57 | relative viability (HCC-44; first compound 0.006325 µM): 0.151 | relative viability (HCC-44; first compound 0.02 µM): 0.149 | relative viability (NCI-H838; first compound 0.0002 µM): 0.795 | relative viability (NCI-H838; first compound 0.000632 µM): 0.522 | relative viability (NCI-H838; first compound 0.002 µM): 0.247 | relative viability (NCI-H838; first compound 0.006325 µM): 0.154 | relative viability (NCI-H838; first compound 0.02 µM): 0.0975 | relative viability (HARA; first compound 0.0002 µM): 1.04 | relative viability (HARA; first compound 0.000632 µM): 0.372 | relative viability (HARA; first compound 0.002 µM): 0.376 | relative viability (HARA; first compound 0.006325 µM): 0.118 | relative viability (HARA; first compound 0.02 µM): 0.0895 | relative viability (BEN; first compound 0.0002 µM): 0.612 | relative viability (BEN; first compound 0.000632 µM): 0.644 | relative viability (BEN; first compound 0.002 µM): 0.341 | relative viability (BEN; first compound 0.006325 µM): 0.263 | relative viability (BEN; first compound 0.02 µM): 0.164 | relative viability (COR-L23; first compound 0.0002 µM): 0.885 | relative viability (COR-L23; first compound 0.000632 µM): 0.915 | relative viability (COR-L23; first compound 0.002 µM): 0.844 | relative viability (COR-L23; first compound 0.02 µM): 0.116 | relative viability (HCC-15; first compound 0.0002 µM): 0.807 | relative viability (HCC-15; first compound 0.000632 µM): 0.78 | relative viability (HCC-15; first compound 0.002 µM): 0.231 | relative viability (HCC-15; first compound 0.006325 µM): 0.216 | relative viability (HCC-15; first compound 0.02 µM): 0.157 | relative viability (A-427; first compound 0.0002 µM): 0.949 | relative viability (A-427; first compound 0.000632 µM): 0.964 | relative viability (A-427; first compound 0.002 µM): 0.656 | relative viability (A-427; first compound 0.006325 µM): 0.275 | relative viability (A-427; first compound 0.02 µM): 0.141
